Laboratory results from US10829473B2, “Modulators of the cystic fibrosis transmembrane conductance regulator protein and methods of use” (AbbVie Overseas S.Á.R.L., priority 2017, dated 2020).
Where two headings read alike, the source gives them in different places.

Biological target: T1, F508delCFTR (Homo sapiens, UniProt P13569, DEL508-508)
T1 construct: expressed in transfected cells; host or cells: CFBE41o- human lung derived epithelial cells (CFBE41o-F508delCFTR-HRP), doxycycline-inducible
Assay: Cell Surface Expression-Horse Radish Peroxidase (CSE-HRP) Assay;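 on EC50 (with co-corrector): co-corrector chromenyl benzoic acid corrector at 2 or 3 µM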;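 on Maximum % activity (without co-corrector): % of on-plate positive control chromenyl benzoic acid corrector at 2 or 3 µM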
Assay type: cell-based
Details: for Emax: read-out: Maximum % activity (without co-corrector)
Outline: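 Corrector compounds were given as 8-point 3-fold series from 20 or 30 μM, with or without a 2 μM co-corrector, for 18-24 h at 33 °C. Surface HRP was read by luminol luminescence as % of positive control; variable-Hill-slope sigmoidal fitting gave EC50 from triplicate plates.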

[1] = test compound alone, without co-corrector, read-out: EC50 (without co-corrector)
[2] = with co-corrector, maximum at any tested concentration
[3] = with co-corrector, read-out: EC50 (with co-corrector)
[4] = without co-corrector, maximum at any tested concentration

T1 sequence (P13569 with tags, fused parts or gaps DEL508-508): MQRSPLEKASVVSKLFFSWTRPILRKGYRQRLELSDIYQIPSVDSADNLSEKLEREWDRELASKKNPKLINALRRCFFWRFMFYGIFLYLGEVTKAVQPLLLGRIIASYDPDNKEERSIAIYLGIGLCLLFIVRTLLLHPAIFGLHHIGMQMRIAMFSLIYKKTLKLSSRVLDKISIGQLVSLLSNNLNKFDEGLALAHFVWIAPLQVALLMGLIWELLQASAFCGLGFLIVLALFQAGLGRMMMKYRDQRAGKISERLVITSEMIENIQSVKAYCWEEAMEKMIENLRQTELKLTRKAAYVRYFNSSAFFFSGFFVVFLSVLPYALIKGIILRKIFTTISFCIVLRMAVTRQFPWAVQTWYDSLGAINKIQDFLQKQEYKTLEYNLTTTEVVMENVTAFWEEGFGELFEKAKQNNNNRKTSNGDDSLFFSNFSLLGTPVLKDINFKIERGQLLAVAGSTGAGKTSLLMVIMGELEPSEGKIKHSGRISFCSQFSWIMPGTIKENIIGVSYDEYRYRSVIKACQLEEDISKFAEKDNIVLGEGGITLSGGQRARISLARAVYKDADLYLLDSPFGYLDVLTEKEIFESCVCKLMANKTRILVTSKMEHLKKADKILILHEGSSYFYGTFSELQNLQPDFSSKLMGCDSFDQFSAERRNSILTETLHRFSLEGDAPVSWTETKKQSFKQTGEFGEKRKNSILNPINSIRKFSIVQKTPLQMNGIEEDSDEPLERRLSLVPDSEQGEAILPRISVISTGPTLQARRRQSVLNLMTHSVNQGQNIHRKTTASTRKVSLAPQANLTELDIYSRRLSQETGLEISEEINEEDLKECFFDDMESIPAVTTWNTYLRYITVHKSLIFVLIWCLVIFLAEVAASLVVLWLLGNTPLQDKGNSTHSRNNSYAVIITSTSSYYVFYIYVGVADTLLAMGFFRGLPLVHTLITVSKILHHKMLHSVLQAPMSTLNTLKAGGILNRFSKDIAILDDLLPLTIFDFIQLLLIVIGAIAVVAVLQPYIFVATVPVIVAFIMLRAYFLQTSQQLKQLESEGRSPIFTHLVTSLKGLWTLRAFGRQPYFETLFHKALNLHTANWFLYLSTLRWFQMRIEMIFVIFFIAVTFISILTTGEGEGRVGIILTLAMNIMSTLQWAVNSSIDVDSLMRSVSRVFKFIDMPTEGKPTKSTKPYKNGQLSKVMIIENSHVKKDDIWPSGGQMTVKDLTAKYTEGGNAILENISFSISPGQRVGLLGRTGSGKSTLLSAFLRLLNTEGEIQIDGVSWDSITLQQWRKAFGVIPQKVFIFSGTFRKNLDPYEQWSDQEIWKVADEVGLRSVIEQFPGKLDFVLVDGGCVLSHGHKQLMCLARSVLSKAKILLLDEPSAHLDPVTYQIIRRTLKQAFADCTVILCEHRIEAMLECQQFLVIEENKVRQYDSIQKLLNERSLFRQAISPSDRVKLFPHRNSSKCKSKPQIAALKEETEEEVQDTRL

| Compound | EC50 [1] | Maximum % activity (with co-corrector) [2] | EC50 [3] | Emax [4] | Emax |
| --- | --- | --- | --- | --- | --- |
| COc1cc(C2(C(=O)NS(=O)(=O)c3cccc4ccccc34)CC2)ccc1C [II-2] | 3 to 10 µM | +++ (≥350) | 3 to 10 µM | > 150% |  |
| O=C(NS(=O)(=O)c1cccc2ncccc12)C1(c2ccccc2OC(F)(F)F)CCC1 [II-3] | 3 to 10 µM | +++ (≥350) | < 3 µM | > 150% |  |
| CCn1nc(C)cc1C1(C(=O)NS(=O)(=O)c2cccc3ccccc23)CC1 [II-4] | 3 to 10 µM | +++ (≥350) | 3 to 10 µM | 50 to 150% |  |
| CCn1nc(C2(C(=O)NS(=O)(=O)c3cccc4ccccc34)CC2)cc1C [II-5] | 3 to 10 µM | ++ (≥150 and <350) | 3 to 10 µM | < 50% |  |
| COc1ccccc1C1(C(=O)NS(=O)(=O)c2cccc3ncccc23)CCC1 [II-6] | 3 to 10 µM | +++ (≥350) | < 3 µM | > 150% |  |
| COc1ncc(C(F)(F)F)cc1C1(C(=O)NS(=O)(=O)c2cccc3ncccc23)CC1 [II-7] | 3 to 10 µM | +++ (≥350) | < 3 µM | > 150% |  |
| COc1ncc(C(F)(F)F)cc1C1(C(=O)NS(=O)(=O)c2cccc3c2CCCN3)CC1 [II-8] | 3 to 10 µM | +++ (≥350) | < 3 µM | > 150% |  |
| COc1ncc(C(F)(F)F)cc1C1(C(=O)NS(=O)(=O)c2cccc3nc(C)ccc23)CC1 [II-9] | 3 to 10 µM | +++ (≥350) | < 3 µM | > 150% |  |
| COc1ncc(C)cc1C1(C(=O)NS(=O)(=O)c2cccc3c2CCCN3)CC1 [II-10] | 3 to 10 µM | +++ (≥350) | 3 to 10 µM | > 150% |  |
| COc1ncc(C2CCC2)cc1C1(C(=O)NS(=O)(=O)c2cccc3ncn(C)c23)CC1 [II-12] | 3 to 10 µM | +++ (≥350) | < 3 µM | > 150% |  |
| COc1ncc(C2CCC2)cc1C1(C(=O)NS(=O)(=O)c2cccc3cnn(C)c23)CC1 [II-13] | < 3 µM | +++ (≥350) | < 3 µM | > 150% |  |
| COc1ncc(C2CCC2)cc1C1(C(=O)NS(=O)(=O)c2cccc3c2ccn3C)CC1 [II-14] | < 3 µM | +++ (≥350) | < 3 µM | > 150% |  |
| COc1ncc(C2CCC2)cc1C1(C(=O)NS(=O)(=O)c2cccc3[nH]ncc23)CC1 [II-15] | 3 to 10 µM | +++ (≥350) | < 3 µM | > 150% |  |
| COc1ncc(C2CCC2)cc1C1(C(=O)NS(=O)(=O)c2cccc3ncc(C)n23)CC1 [II-16] | 3 to 10 µM | +++ (≥350) | < 3 µM | > 150% |  |
| COc1ncc(C(F)(F)F)cc1C1(C(=O)NS(=O)(=O)c2cccc3ccn(C)c23)CC1 [II-17] | < 3 µM | +++ (≥350) | < 3 µM | > 150% |  |
| COc1ncc(C(F)(F)F)cc1C1(C(=O)NS(=O)(=O)c2cccc3c2ccn3C)CC1 [II-18] | 3 to 10 µM | +++ (≥350) | < 3 µM | > 150% |  |
| COc1ncc(C(F)(F)F)cc1C1(C(=O)NS(=O)(=O)c2cccc3ncc(C)n23)CC1 [II-19] | 3 to 10 µM | +++ (≥350) | 3 to 10 µM | 50 to 150% |  |
| COc1ccc(C(C)C)cc1C1(C(=O)NS(=O)(=O)c2cccc3c2CCCN3)CCC1 [II-20] | 3 to 10 µM | +++ (≥350) | < 3 µM | > 150% |  |
| COc1ccc(C2CCCC2)cc1C1(C(=O)NS(=O)(=O)c2cccc3c2CCCN3)CCC1 [II-21] | < 3 µM | +++ (≥350) | < 3 µM | > 150% |  |
| CCC(C)c1ccc(OC)c(C2(C(=O)NS(=O)(=O)c3cccc4c3CCCN4)CCC2)c1 (stereo not drawn) [II-22] | 3 to 10 µM | +++ (≥350) | < 3 µM | > 150% |  |
| COc1ccc(OC2CCOC2)cc1C1(C(=O)NS(=O)(=O)c2cccc3ncccc23)CC1 (stereo not drawn) [II-23] | 3 to 10 µM | +++ (≥350) | 3 to 10 µM | 50 to 150% |  |
| O=C(NS(=O)(=O)c1cccc2ncccc12)C1(c2cc(OC(F)(F)F)ccc2Cl)CC1 [II-24] | < 3 µM | +++ (≥350) | < 3 µM | > 150% |  |
| O=C(NS(=O)(=O)c1cccc2c1CCCN2)C1(c2cc(OC(F)(F)F)ccc2Cl)CC1 [II-25] | 3 to 10 µM | +++ (≥350) | < 3 µM | > 150% |  |

| Compound | EC50 [1] | Maximum % activity (with co-corrector) [2] | EC50 [3] | Emax [4] | Emax |
| --- | --- | --- | --- | --- | --- |
| COc1ccc(C(C)C)cc1C1(C(=O)NS(=O)(=O)c2cccc3c2CCCN3)CC1 [II-26] | < 3 µM | +++ (≥350) | < 3 µM | > 150% |  |
| COc1cc(F)c(C(C)C)cc1C1(C(=O)NS(=O)(=O)c2cccc3c2CCCN3)CC1 [II-27] | < 3 µM | +++ (≥350) | < 3 µM | > 150% |  |
| COc1ccc(C(F)(F)F)cc1C1(C(=O)NS(=O)(=O)c2cccc3c2CCCN3)CC1 [II-28] | < 3 µM | +++ (≥350) | < 3 µM | > 150% |  |
| COC(=O)C1(c2ccc(OC)c(C3(C(=O)NS(=O)(=O)c4cccc5ncccc45)CC3)c2)CC1 [II-30] | 3 to 10 µM | +++ (≥350) | < 3 µM | > 150% |  |
| COC(=O)c1ccc(OC)c(C2(C(=O)NS(=O)(=O)c3cccc4ncccc34)CC2)c1 [II-31] | 3 to 10 µM | +++ (≥350) | < 3 µM |  | > 150% |
| COC(=O)c1ccc(OC)c(C2(C(=O)NS(=O)(=O)c3cccc4ccccc34)CC2)c1 [II-32] | 3 to 10 µM | +++ (≥350) | < 3 µM |  | > 150% |
| COc1ncc(C2CCC2)c(C)c1C1(C(=O)NS(=O)(=O)c2cccc3nc(C)ccc23)CC1 [II-33] | 3 to 10 µM | +++ (≥350) | < 3 µM | > 150% |  |
| COc1cccc(C)c1C1(C(=O)NS(=O)(=O)c2cccc3ncccc23)CC1 [II-35] | 3 to 10 µM | +++ (≥350) | < 3 µM | > 150% |  |
| COc1ccc(C)c(C)c1C1(C(=O)NS(=O)(=O)c2cccc3c2CCCN3)CC1 [II-36] | < 3 µM | +++ (≥350) | < 3 µM | > 150% |  |
| COc1ccc(C2CC2)c(C)c1C1(C(=O)NS(=O)(=O)c2cccc3c2CCCN3)CC1 [II-37] | < 3 µM | +++ (≥350) | < 3 µM | > 150% |  |
| COc1ncc(C2CCC2)c(C)c1C1(C(=O)NS(=O)(=O)c2cccc3c2CCCN3)CC1 [II-38] | 3 to 10 µM | +++ (≥350) | < 3 µM | > 150% |  |
| COc1ccc(C)c(OC)c1C1(C(=O)NS(=O)(=O)c2cccc3ccc(C)nc23)CC1 [II-39] | < 3 µM | +++ (≥350) | < 3 µM | 50 to 150% |  |
| COc1ccc(C2CCC2)cc1C1(C(=O)NS(=O)(=O)c2cccc3c2CCN3C)CC1 [II-40] | 3 to 10 µM | +++ (≥350) | 3 to 10 µM | > 150% |  |
| COc1ncc(C2CCC2)c(C)c1C1(C(=O)NS(=O)(=O)c2cccc3c2ccn3C)CC1 [II-41] | 3 to 10 µM | +++ (≥350) | < 3 µM | 50 to 150% |  |
| COc1ncc(C2CCC2)c(C)c1C1(C(=O)NS(=O)(=O)c2cccc3ccn(C)c23)CC1 [II-42] | 3 to 10 µM | +++ (≥350) | < 3 µM | 50 to 150% |  |
| COc1ncc(C2CCC2)c(C)c1C1(C(=O)NS(=O)(=O)c2cccc3cnn(C)c23)CC1 [II-43] | < 3 µM | +++ (≥350) | < 3 µM | 50 to 150% |  |
| COc1ncc(C2CCC2)c(C)c1C1(C(=O)NS(=O)(=O)c2cccc3ccc(C)nc23)CC1 [II-44] | < 3 µM | +++ (≥350) | < 3 µM | > 150% |  |
| COc1cccc(C)c1C1(C(=O)NS(=O)(=O)c2cccc3ccc(C)nc23)CC1 [II-45] | 3 to 10 µM | +++ (≥350) | < 3 µM | > 150% |  |
| COc1ccc(C2CCC2)c(C2(C(=O)NS(=O)(=O)c3cccc4ncccc34)CC2)c1 [II-46] | < 3 µM | +++ (≥350) | < 3 µM | > 150% |  |
| COc1ccc(C2CCC2)c(C2(C(=O)NS(=O)(=O)c3cccc4nc(C)ccc34)CC2)c1 [II-47] | < 3 µM | +++ (≥350) | < 3 µM | > 150% |  |
| COc1ccc(CO)cc1C1(C(=O)NS(=O)(=O)c2cccc3ncccc23)CC1 [II-48] | > 10 µM | ++ (≥150 and <350) | 3 to 10 µM | < 50% |  |
| COCc1ccc(OC)c(C2(C(=O)NS(=O)(=O)c3cccc4ncccc34)CC2)c1 [II-49] | < 3 µM | +++ (≥350) | < 3 µM | > 150% |  |
